Test results: patent US6552078B2, “6-methoxy-2-naphthylacetic acid prodrugs” (priority 1999, dated 2003)

Assays:
[1] = Chemical Hydrolysis; type: physicochemical
[2] = In Vitro Hydrolysis in Rat Plasma; type: in vitro ADME
[3] = test system: Rat Paw Edema; experiment: Rat Paw Edema; type: in vivo; conditions: Dose (mg/kg): Example 11 80; Example 12 121

Row | half-life ([1]; pH 3) | half-life ([1]; pH 7.4) | half-life ([1]; pH 8) | metabolised at 2 h ([2]; in ˜2 h, column head pH 3, read-out: In Vitro Hydrolysis in Rat Plasma: conversion to 6-MNA) | half-life ([2]; column head pH 3, read-out: In Vitro Hydrolysis in Rat Plasma: T1/2) | SMILES | Rat Paw Edema % Inhibition [3]
1 | > 25 h | 22 h | 7 h | 21% | – | COc1ccc2cc(CC(=O)OCC(C)=O)ccc2c1 [Example 1, (6-methoxy-naphthalen-2-yl)-acetic acid 2-oxo-propyl ester] | –
2 | > 300 h | ~280 h | ~280 h | – | > 5 min | COc1ccc2cc(CC(=O)OCCOCCO[N+](=O)[O-])ccc2c1 [Example 2, (6-Methoxy-naphthalen-2-yl)-acetic acid 2-(2-nitrooxy-ethoxy)-ethyl ester] | –
3 | – | – | – | – | – | COc1ccc2cc(CC(=O)NO)ccc2c1 [Example 11, N-Hydroxy-2-(6-methoxy-naphthalen-2-yl)-acetamide] | 59.6%
